Data as given in PubChem BioAssay AID1963852 (Molecular Pharmacology Branch, DTP, NCI, 2024).

System: 282377-053-R-J1-PDC complex spheroid viability
Assay: Anticancer human tumor 282377-053-R-J1-PDC patient-derived colon adenocarcinoma cell line growth inhibition [POLQ]
Conditions: for IC50: curve of first compound; for viability, T/C: stronger effect = lower value
Protocol: Multicellular complex tumor spheroid response to Polymerase (POL) inhibitors (novobiocin, ART-558, RP6685) in combination with a variety of drugs and investigational agents in selected tumor cell lines
The POL inhibitors (novobiocin, ART-558, and RP6685) were evaluated both individually and in combination with standard of care and investigational anticancer small molecules within a complex spheroid model of solid tumors. . Complex spheroids include a stromal component modeled by human endothelial cells (HUVEC) and fibroblasts modeled by human mesenchymal stem cells (MSCs). The concentration ranges selected for each drug and investigational agent were based upon clinically achievable concentrations if the clinical Cmax of the agent was known.
Compounds. The drugs and investigational agents: novobiocin (NSC847541), ART-558 (NSC835418), RP-6685 (NSC848927), peposertib (NSC802822), ceralasertib (NSC780249), elimusertib (NSC800525), camonsertib (NSC841442), AZD-1390 (NSC803789), olaparib (NSC753686), talazoparib (NSC767125), rucaparib (NSC756644), sotorasib (NSC818433), MRTX-1133 (NSC836407), SN-38 (NSC673596), topotecan (NSC609699), epotoside (NSC141540), doxorubicin (NSC123127), gemcitabine (NSC613327), 5-fluorouracil (NSC19893), paclitaxel (NSC125973), vemurafenib (NSC761431), MSA-2 (NSC828583), SN-011 (NSC837082), adavosertib (NSC754352), prexasertib (NSC758257), carboplatin (NSC241240) and oxaliplatin (NSC266046), were obtained from the National Cancer Institute (NCI) Developmental Therapeutics Program Chemical Repository (21). The FDA-approved anticancer drug set is available from the Developmental Therapeutics Program at https://dtp.cancer.gov/organization/dscb/obtaining/. […] The stock solutions were prepared in dimethyl sulfoxide (DMSO, Sigma-Aldrich, St. Louis, MO, cat. D2650), except for the platinum compounds which were prepared in saline (Quality Biological, Gaithersburg, MD, cat. 114-055-101), at 800-fold the tested concentration and stored at -70 degrees C prior to their use. All drugs and investigational agents were tested over a range starting from a high concentration at or near the clinical Cmax and decreasing in half-log increments. If the clinical Cmax for an agent had not been determined, the highest concentration tested was 10 microM, except for SN-38, which was tested at a high concentration of 1 microM.
Cell Culture. All cells were maintained in an incubator at 37 degrees C and 5% CO2 with 95% humidity. The PDC lines were cultured according to standard operating procedures established by the NCI PDMR (https://pdmr.cancer.gov). Table 3 of the manuscript, lists the cell lines along with the number of the three cell types plated to form the mct-spheroids and media for tumor cell growth. After thawing, all PDC lines, except 997537-175-T-J1-PDC and 415267-285-R-J2-PDC, were cultured in Matrigel-coated flasks prepared with a working solution of 1X Ham's F-12 nutrient mix, without supplementation (Thermo Fisher Scientific, cat. 11765054), 100 U/mL penicillin-streptomycin (Thermo Fisher Scientific, cat. 15140122), and 2.5% Matrigel (Corning Inc., Corning, NY, cat. 354248) for the first three passages. The two PDC lines 997537-175-T-J1-PDC and 415267-285-R-J2-PDC were cultured on uncoated flasks. The 857933-349-R-J2-PDC line was cultured in 6C/Colon 1B media containing advanced DMEM/F-12 (Thermo Fisher Scientific, cat. 12634028), 10 mM HEPES (Thermo Fisher Scientific, cat. 15630080), 1X GlutaMAX supplement (Thermo Fisher Scientific, cat. 35050061), 0.1 mg/mL primocin (InvivoGen, San Diego, CA, cat. ant-pm-2), 10% defined fetal bovine serum, heat inactivated (HyClone Laboratories Inc., Logan, UT, cat. SH30070.03HI), 50% L-WRN conditioned media (ATCC, cat. CRL-3276), 1.25 mM N-Acetyl-L-cysteine (Sigma-Aldrich, cat. A9165), 10 mM nicotinamide (Sigma-Aldrich, cat. N0636), 1X B-27 supplement (Thermo Fisher Scientific, cat. 17504044), 1X N-2 supplement (Thermo Fisher Scientific, cat. […]

[1] = second compound 0.0316 µM, first compound 0.0316 µM
[2] = second compound 0.0316 µM, first compound 0.1 µM
[3] = second compound 0.0316 µM, first compound 0.316 µM
[4] = second compound 0.0316 µM, first compound 1 µM
[5] = second compound 0.0316 µM, first compound 3.16 µM
[6] = second compound 0.0316 µM, first compound 10 µM
[7] = second compound 0.1 µM, first compound 0.0316 µM
[8] = second compound 0.1 µM, first compound 0.1 µM
[9] = second compound 0.1 µM, first compound 0.316 µM
[10] = second compound 0.1 µM, first compound 1 µM
[11] = second compound 0.1 µM, first compound 3.16 µM
[12] = second compound 0.1 µM, first compound 10 µM
[13] = second compound 0.316 µM, first compound 0.0316 µM
[14] = second compound 0.316 µM, first compound 0.1 µM
[15] = second compound 0.316 µM, first compound 0.316 µM
[16] = second compound 0.316 µM, first compound 1 µM
[17] = second compound 0.316 µM, first compound 3.16 µM
[18] = second compound 0.316 µM, first compound 10 µM
[19] = second compound 1 µM, first compound 0.0316 µM
[20] = second compound 1 µM, first compound 0.1 µM
[21] = second compound 1 µM, first compound 0.316 µM
[22] = second compound 1 µM, first compound 1 µM
[23] = second compound 1 µM, first compound 3.16 µM
[24] = second compound 1 µM, first compound 10 µM
[25] = second compound 3.16 µM, first compound 0.0316 µM
[26] = second compound 3.16 µM, first compound 0.1 µM
[27] = second compound 3.16 µM, first compound 0.316 µM
[28] = second compound 3.16 µM, first compound 1 µM
[29] = second compound 3.16 µM, first compound 3.16 µM
[30] = second compound 3.16 µM, first compound 10 µM
[31] = second compound 10 µM, first compound 0.0316 µM
[32] = second compound 10 µM, first compound 0.1 µM
[33] = second compound 10 µM, first compound 0.316 µM
[34] = second compound 10 µM, first compound 1 µM
[35] = second compound 10 µM, first compound 3.16 µM
[36] = second compound 10 µM, first compound 10 µM
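Note: spheroids exposed to compounds for seven days.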
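Throughout, for viability, T/C: 100% = DMSO vehicle control viability.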

**Q.** Which results are given for `CC1COCCN1c1cc(C2(O)CC3CCC(C2)O3)c2cnn(-c3ccn[nH]3)c2n1` (centres undefined) + Nc1ccc(C#CCN(C(=O)Cc2ncc(C(F)(F)F)cc2C(F)(F)F)c2ccc(F)cc2)nn1?
**A.** IC50 (second compound 0.0316 µM): 1980 nM; IC50 (second compound 0.1 µM): 588 nM; IC50 (second compound 0.316 µM): 1290 nM; IC50 (second compound 1 µM): 730 nM; IC50 (second compound 3.16 µM): 1180 nM; IC50 (second compound 10 µM): 1080 nM; viability, T/C [1]: 83.8%; viability, T/C [2]: 75.4%; viability, T/C [3]: 67.5%; viability, T/C [4]: 53.3%; viability, T/C [5]: 47.8%; viability, T/C [6]: 40.5%; viability, T/C [7]: 89.3%; viability, T/C [8]: 89.3%; viability, T/C [9]: 57.3%; viability, T/C [10]: 48.7%; viability, T/C [11]: 43.3%; viability, T/C [12]: 36.4%; viability, T/C [13]: 107%; viability, T/C [14]: 84.6%; viability, T/C [15]: 63.9%; viability, T/C [16]: 50.6%; viability, T/C [17]: 46.5%; viability, T/C [18]: 36.3%; viability, T/C [19]: 97.6%; viability, T/C [20]: 83.9%; viability, T/C [21]: 71%; viability, T/C [22]: 38.3%; viability, T/C [23]: 44.4%; viability, T/C [24]: 43.6%; viability, T/C [25]: 92.3%; viability, T/C [26]: 75.7%; viability, T/C [27]: 65.6%; viability, T/C [28]: 47.6%; viability, T/C [29]: 45.9%; viability, T/C [30]: 40.8%; viability, T/C [31]: 97.3%; viability, T/C [32]: 77.2%; viability, T/C [33]: 62.8%; viability, T/C [34]: 49.3%; viability, T/C [35]: 44%; viability, T/C [36]: 40.1%

**Q.** Which IC50 (second compound 0.0316 µM) does the source give for `COc1ccc([C@@H](O)c2cc(-c3ncnc4cc(N5CCOCC5)ccc34)c(F)cc2Cl)nn1` + COC1C(OC(N)=O)C(O)C(Oc2ccc3c(O)c(NC(=O)c4ccc(O)c(CC=C(C)C)c4)c(=O)oc3c2C)OC1(C)C here?
**A.** Its IC50 is > 10000 nM.

**Q.** What about the IC50 (second compound 0.1 µM) of the same compound?
**A.** Its IC50 is > 10000 nM.

**Q.** And the IC50 (second compound 0.316 µM)?
**A.** Its IC50 is > 10000 nM.

**Q.** And the IC50 (second compound 1 µM)?
**A.** The IC50 was > 10000 nM.

**Q.** And the IC50 (second compound 3.16 µM)?
**A.** The IC50 was > 10000 nM.

**Q.** And the IC50 (second compound 10 µM)?
**A.** Its IC50 is > 10000 nM.

**Q.** What about the viability, T/C [1] of the same compound?
**A.** The viability, T/C was 109%.

**Q.** And the viability, T/C [2]?
**A.** The viability, T/C was 105%.

**Q.** What about the viability, T/C [3] of the same compound?
**A.** Its viability, T/C is 104%.

**Q.** And the viability, T/C [4]?
**A.** Its viability, T/C is 85.4%.

**Q.** And the viability, T/C [5]?
**A.** Its viability, T/C is 85.4%.

**Q.** And the viability, T/C [6]?
**A.** Its viability, T/C is 78.5%.

**Q.** What about the viability, T/C [7] of the same compound?
**A.** The viability, T/C was 108%.

**Q.** And the viability, T/C [8]?
**A.** The viability, T/C was 106%.

**Q.** What about the viability, T/C [9] of the same compound?
**A.** The viability, T/C was 95.1%.

**Q.** What about the viability, T/C [10] of the same compound?
**A.** Its viability, T/C is 73.7%.

**Q.** And the viability, T/C [11]?
**A.** Its viability, T/C is 70.1%.

**Q.** What about the viability, T/C [12] of the same compound?
**A.** The viability, T/C was 62.3%.

**Q.** What about the viability, T/C [13] of the same compound?
**A.** Its viability, T/C is 96.5%.

**Q.** And the viability, T/C [14]?
**A.** Its viability, T/C is 89.3%.

**Q.** What about the viability, T/C [15] of the same compound?
**A.** Its viability, T/C is 78.2%.

**Q.** And the viability, T/C [16]?
**A.** The viability, T/C was 88.1%.

**Q.** And the viability, T/C [17]?
**A.** The viability, T/C was 77.5%.

**Q.** And the viability, T/C [18]?
**A.** Its viability, T/C is 69.2%.

**Q.** And the viability, T/C [19]?
**A.** Its viability, T/C is 93.2%.

**Q.** What about the viability, T/C [20] of the same compound?
**A.** The viability, T/C was 90.9%.

**Q.** What about the viability, T/C [21] of the same compound?
**A.** The viability, T/C was 101%.

**Q.** What about the viability, T/C [22] of the same compound?
**A.** Its viability, T/C is 87.2%.

**Q.** And the viability, T/C [23]?
**A.** Its viability, T/C is 95%.

**Q.** What about the viability, T/C [24] of the same compound?
**A.** The viability, T/C was 66.2%.

**Q.** What about the viability, T/C [25] of the same compound?
**A.** Its viability, T/C is 94%.

**Q.** What about the viability, T/C [26] of the same compound?
**A.** The viability, T/C was 91.8%.

**Q.** What about the viability, T/C [27] of the same compound?
**A.** The viability, T/C was 90.7%.

**Q.** And the viability, T/C [28]?
**A.** Its viability, T/C is 89.4%.

**Q.** What about the viability, T/C [29] of the same compound?
**A.** Its viability, T/C is 79.3%.

**Q.** And the viability, T/C [30]?
**A.** The viability, T/C was 57.6%.

**Q.** And the viability, T/C [31]?
**A.** Its viability, T/C is 102%.

**Q.** And the viability, T/C [32]?
**A.** Its viability, T/C is 91.6%.

**Q.** And the viability, T/C [33]?
**A.** Its viability, T/C is 91.7%.

**Q.** And the viability, T/C [34]?
**A.** Its viability, T/C is 92.2%.

**Q.** What about the viability, T/C [35] of the same compound?
**A.** The viability, T/C was 60.1%.

**Q.** And the viability, T/C [36]?
**A.** The viability, T/C was 75.7%.
